Measurements reported in the supplement of paper PMC10307832.

Columns and labels:
Assay in all cases: relative viability (nuclei count vs DMSO), 5 days (fraction); higher = more cells survive
[1] = compound: CC[C@H](Nc1ncnc2[nH]cnc12)c1nc2cccc(F)c2c(=O)n1-c1ccccc1 [Idelalisib] + N=C(N)NC(=N)NCCc1ccccc1 [Phenformin] (partner 250 µM)
Procedure, shortened: (§1)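 Lung cancer cell lines were seeded in 1536-well plates and dosed by pin tool the next day, with either a single drug or a fixed anchor-drug dose combined with five library-drug doses (not always all listed) spaced in √10 steps. Five days later, one step fixed the cells and stained their nuclei (final 0.05% Triton X-100, 1% formaldehyde, 1 ug/ml Hoechst), and nuclei were counted on 4× images. Relative viability is the nuclei count in treated wells divided by the count in vehicle wells, and each value is the median of duplicate plates.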

[2] = compound: Nc1nc2[nH]cc(CCc3ccc(C(=O)N[C@@H](CCC(=O)O)C(=O)O)cc3)c2c(=O)[nH]1 [Pemetrexed] + Cc1nc(Nc2ncc(C(=O)Nc3c(C)cccc3Cl)s2)cc(N2CCN(CCO)CC2)n1 [Dasatinib] (partner 0.075 µM)
Procedure, shortened: as §1

[3] = compound: CC[C@H](Nc1ncnc2[nH]cnc12)c1nc2cccc(F)c2c(=O)n1-c1ccccc1 [Idelalisib] + COc1cc2c(Oc3ccc(NC(=O)C4(C(=O)Nc5ccc(F)cc5)CC4)cc3F)ccnc2cc1OCCCN1CCOCC1 [Foretinib] (partner 0.25 µM)
Procedure, shortened: as §1

[4] = compound: CC[C@H](Nc1ncnc2[nH]cnc12)c1nc2cccc(F)c2c(=O)n1-c1ccccc1 [Idelalisib]
Procedure, shortened: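 Vehicle-anchored 1536-well plates of lung cancer cell lines, held overnight at 37 °C, were pinned with five library-drug doses (not always all listed) spaced by √10. No medium change followed over the next 5 days, after which the cells were fixed, permeabilised and Hoechst-stained together and imaged at 4×. Nuclei were counted with MetaXpress, and viability is treated-well nuclei over vehicle-well nuclei, taken as a median across plates. Plates passed with control CV below 25% and at least one doubling.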

Cell Line	relative viability ([1]; first compound 0.04 µM)	relative viability ([1]; first compound 0.1265 µM)	relative viability ([1]; first compound 0.4 µM)	relative viability ([1]; first compound 1.265 µM)	relative viability ([1]; first compound 4 µM)	relative viability ([2]; first compound 0.002 µM)	relative viability ([2]; first compound 0.006325 µM)	relative viability ([2]; first compound 0.02 µM)	relative viability ([2]; first compound 0.06325 µM)	relative viability ([2]; first compound 0.2 µM)	relative viability ([3]; first compound 0.04 µM)	relative viability ([3]; first compound 0.1265 µM)	relative viability ([3]; first compound 0.4 µM)	relative viability ([3]; first compound 1.265 µM)	relative viability ([3]; first compound 4 µM)	relative viability ([4]; 0.04 µM)	relative viability ([4]; 0.1265 µM)	relative viability ([4]; 0.4 µM)	relative viability ([4]; 1.265 µM)	relative viability ([4]; 4 µM)
NCI-H1563	0.666	0.666	0.612	0.631	0.638	0.24	0.453	0.486	0.426	0.492	0.969	0.941	0.873	0.877	0.788	0.96	0.997	0.909	0.946	0.876
NCI-H1623	0.596	0.619	0.537	0.529	0.547	0.511	0.539	0.458	0.517	0.509	0.849	0.8	0.754	0.706	0.846	1	0.961	0.846	0.949	0.817
NCI-H1650	0.439	0.341	0.35	0.371	0.379	0.42	0.32	0.326	0.235	0.23	1.33	1.42	0.944	0.864	0.917	0.984	0.907	0.882	0.91	0.815
NCI-H1651	0.35	0.372	0.258	0.322	0.321	0.388	0.357	0.439	0.346	0.428	0.761	0.799	0.702	0.735	0.561	1.01	1.01	0.885	0.965	0.938
NCI-H1666	0.618	0.57	0.539	0.583	0.546	0.778	0.857	0.818	0.754	0.585	0.825	1.07	0.961	1.01	0.947	1.03	1.04	0.911	0.981	0.902
NCI-H1734	0.455	0.446	0.344	0.377	0.377	0.388	0.445	0.49	0.433	0.381	0.911	0.911	0.836	0.957	0.642	1.15	1.04	0.833	0.959	0.938
